Assay results as given in patent publication US5599975A, “Cyclised analogues of fatty acid metabolites” (Adir Et Compagnie, priority 1993, dated 1997).

Each compound was assayed on rabbit platelets (assay: Platelet aggregation study: anti-aggregating effect on platelets activated with collagen). Conditions: Oryctolagus cuniculus, 0.05 h, collagen (2 μl/ml), 37° C., 3 minutes incubation, aggregometer, 1000 rpm, read-out: IC50 (concentration of antagonist necessary to produce 50% inhibition of the aggregating responses to collagen).
Type: cell-based
Procedure: The study is carried out on rabbit platelets. […] The plasma rich in platelets (PRP) is obtained by centrifuging (20° C.) at 250 g for 20 minutes. The PRP is centrifuged again (1000 g) for 15 minutes and the platelet sediment is again suspended in a saline solution buffered with tris(hydroxymethyl)aminomethane, containing gelatin (0.2%). After centrifuging again (1000 g; 15 min.), the sediment is again suspended in a physiological solution and stored at room temperature.
The anti-aggregating effect of the products is examined on platelets activated with collagen (2 μl/ml). The platelet aggregation is carried out at 37° C. in siliconised glass tubes using an aggregometer (Coultronics). The platelets are stirred at 1000 rpm. To test the antagonist effect, the PRP is incubated for 3 minutes at 37° C. with the substance to be tested. The collagen is then added (2 μl/ml).

In order of rising IC50:
1. CCCCC/C=C\CC(O)c1cccc(/C=C\CCCC(=O)O)c1 (centres unmarked) [Example 26, Sodium (5Z)-6-{3-[(3Z)-(1-hydroxynon-3-en-1-yl)]phenyl}hex-5-enoate]  1.8 µM
2. CCCCCC#CCC(O)c1cccc(/C=C\CCCC(=O)O)c1 (centres unmarked) [Example 4]  2.2 µM
3. CCCCCC(O)c1cccc(/C=C\CCCC(=O)O)c1 (centres unmarked) [Example 12, Sodium (5Z)-6-[3-(1-hydroxyhex-1-yl)phenyl]hex-5-enoate]  20 µM
4. CCCCCC(O)c1cccc(CCCCCC(=O)O)c1 (centres unmarked) [Example 15, Sodium 6-[3-(1-hydroxyhexyl)phenyl]hexanoate]  21 µM
5. CCCCCC(O)c1cccc(/C=C\CCCC(=O)O)n1 (centres unmarked) [Example 18, Sodium (5Z)-6-[6-(1-hydroxyhex-1-yl)pyrid-2-yl]hex-5-enoate]  30 µM
